Experimental data reported in US20110166112A1, “METHOD FOR STIMULATING PLATELET PRODUCTION” (Eisai, Inc., priority 2009, published 2011).

Test system: subjects with chronic ITP who completed 28 days of study treatment
Assay: Phase 2 6-month rollover study of E5501: effectiveness (durable, transient, overall platelet response, maintenance, steroid use, upward dose titration)
Format: in vivo, human
Details: for Decreased use of concomitant steroid medication by ≧50%, No / Decreased use of concomitant steroid medication by ≧50%, Yes / Permanently discontinued steroid use, No / Permanently discontinued steroid use, Yes: 6-month rollover, FAS subjects taking steroids at baseline; for subjects who required upward dose titration / durable response rate: 6-month treatment period; for Transient Platelet Response No, %: 'no' includes durable responders
Method: This study was a multicenter, parallel-group, rollover study of E5501 in subjects with chronic ITP who were enrolled in and completed 28 days' of study treatment. All subjects who completed the previous study and otherwise met the eligibility criteria for this rollover protocol were enrolled.
Subjects who rolled over from the previous study were treated for an additional 6 months after completing previous study.
Initial dose: Subjects who met the efficacy response in the previous study continued to receive their previous blinded dose at entry into this study.
Dose titration was performed in an open label fashion in 10 mg increments as follows: • Nonresponders, who received initial doses of open-label E5501 10 mg in the previous study, could have their dose increased in 10 mg increments every 14 days to a maximum of 40 mg/day in the absence of platelet response.
Subjects were also permitted to reduce their dose of ITP-directed concomitant therapy (e.g., steroids). The overall goal of any dose modification was to maintain the subject's peripheral platelet count above 50,000/mm^3 and to decrease the need for ITP-directed concomitant medications (if applicable). During any dose modification of study drug or ITP-directed concomitant medications, platelet counts were collected every week. After platelet counts stabilized, platelet count collection reverted to a biweekly schedule.
Assessments: Study subjects were evaluated for safety and efficacy (including platelet count) on day 1 and then biweekly while receiving treatment.
Two primary analysis populations were used to summarize safety and effectiveness: • Safety population: all subjects who received at least 1 dose of study drug and had at least 1 post-treatment safety assessment in either the previous or this study. All safety analyses were performed using this population. • Full Analysis Set (FAS): all subjects who participated in both studies and who had at least one post-treatment effectiveness assessment in this study. All efficacy analyses were performed using this population.
Secondary Endpoints: The secondary endpoints were markers of effectiveness, including: • 1. Changes in platelet count from baselines of the previous study and of this study by study visit; and • 2. Durable platelet response, defined as subjects who had at least 3 platelet count assessments in the last 14 weeks of the 24-week treatment period, and whose platelet count was at a response level for at least 75% of the time in the last 14 weeks during the 24-week treatment period, with no rescue medication used during the 24-week treatment period. Platelet response level was defined as ≧50,000/mm^3 for subjects whose baseline platelet count was <30,000/mm^3 in the previous study or an increase in baseline platelet count of ≧20,000/mm^3 for subjects receiving steroids whose baseline platelet count in the previous study was ≧30,000/mm^3 but <50,000/mm^3; • 3. Transient platelet response, defined as achievement of a response level for any 4 consecutive weeks during the 24-week treatment period without durable platelet response in the absence of any rescue medication; • 4. Overall platelet response (durable platelet response plus transient platelet response); • 5. Maintenance of platelet response, defined as subjects who were responders in the previous study (e.g., responders on day 28 of the previous study) who achieved a durable response in this study and had no upward dose titration of E5501 during this study; • 6. Permanent discontinuation of steroid use, defined as subjects who used steroid medication within the 2-week period before their first dose of study drug in this study, and for whom concomitant steroid medication was discontinued at least 8 weeks before the end of the treatment period; • 7. Reduction of steroid use by at least 50%. […]

[1] = FAS, 501-CL-003 Nonresponders (N = 28)
[2] = FAS, 501-CL-003 Responders (N = 25)
[3] = FAS, <3 Lines of Prior Therapy, E5501 Total, N assessed 18
[4] = FAS, <3 Lines of Prior Therapy, Non-Responders, N assessed 6
[5] = FAS, <3 Lines of Prior Therapy, Responders, N assessed 12
[6] = FAS, Baseline PC >15K/mm^3, E5501 Total, N assessed 38
[7] = FAS, Baseline PC >15K/mm^3, Non-Responders, N assessed 19

O=C(Nc1nc(-c2cc(Cl)cs2)c(N2CCN(C3CCCCC3)CC2)s1)c1cnc(N2CCC(C(=O)O)CC2)c(Cl)c1 [E5501, 1-(3-chloro-5-{[4-(4-chlorothiophen-2-yl)-5-(4-cyclohexylpiperazin-1-yl)thiazol-2-yl]carbamoyl}pyridine-2-yl)piperidine-4-carboxylic acid]
Decreased use of concomitant steroid medication by ≧50%, No (E5501 Total): 11 (45.8) n (%)
Decreased use of concomitant steroid medication by ≧50%, Yes (E5501 Total): 13 (54.2) n (%)
Permanently discontinued steroid use, No (E5501 Total): 16 (66.7) n (%)
Permanently discontinued steroid use, Yes (E5501 Total): 8 (33.3) n (%)
Decreased use of concomitant steroid medication by ≧50%, No (Nonresponders): 6 (50.0) n (%)
Decreased use of concomitant steroid medication by ≧50%, Yes (Nonresponders): 6 (50.0) n (%)
Permanently discontinued steroid use, No (Nonresponders): 8 (66.7) n (%)
Permanently discontinued steroid use, Yes (Nonresponders): 4 (33.3) n (%)
Decreased use of concomitant steroid medication by ≧50%, No (Responders): 5 (41.7) n (%)
Decreased use of concomitant steroid medication by ≧50%, Yes (Responders): 7 (58.3) n (%)
Permanently discontinued steroid use, No (Responders): 8 (66.7) n (%)
Permanently discontinued steroid use, Yes (Responders): 4 (33.3) n (%)
subjects who required upward dose titration (25 responders): 20%
subjects who required upward dose titration (28 non-responders): 75%
durable response rate (FAS, all subjects): 52.8%
durable response rate (FAS, non-responders in previous study): 35.7%
durable response rate (FAS, responders in previous study): 72.0%
subjects who achieved an overall platelet response after the titration (13 subjects who required and did receive a dose titration): 76.9%
median platelet counts maintained throughout the study (FAS): above 50,000 /mm^3
Upward titration required and implemented, % of subjects (FAS, 501-CL-003 Nonresponders): (47.6) %
Upward titration required and implemented, n of subjects (FAS, 501-CL-003 Nonresponders): 10/21
Upward titration required and implemented; subject achieved overall response, % of subjects (FAS, 501-CL-003 Nonresponders): (70.0) %
Upward titration required and implemented; subject achieved overall response, n of subjects (FAS, 501-CL-003 Nonresponders): 7/10
Upward titration required, % of subjects [1]: (75.0) %
Upward titration required, n of subjects [1]: 21
Upward titration required and implemented, % of subjects (FAS, 501-CL-003 Responders): (60.0) %
Upward titration required and implemented, n of subjects (FAS, 501-CL-003 Responders): 3/5
Upward titration required and implemented; subject achieved overall response, % of subjects (FAS, 501-CL-003 Responders): (100.0) %
Upward titration required and implemented; subject achieved overall response, n of subjects (FAS, 501-CL-003 Responders): 3/3
Upward titration required, % of subjects [2]: (20.0) %
Upward titration required, n of subjects [2]: 5
Durable Platelet Response No, % (FAS, E5501 Total (N=53)): (47.2) %
Durable Platelet Response Yes, % (FAS, E5501 Total (N=53)): (52.8) %
Transient Platelet Response Yes, % (FAS, E5501 Total (N=53)): (22.6) %
With Overall Response No, % (FAS, E5501 Total (N=53)): (24.5) %
With Overall Response Yes, % (FAS, E5501 Total (N=53)): (75.5) %
Transient Platelet Response No, % (FAS, E5501 Total (N=53)): (77.4) %
Durable Platelet Response No, % (FAS, Non-Responders (N=28)): (64.3) %
Durable Platelet Response Yes, % (FAS, Non-Responders (N=28)): (35.7) %
Transient Platelet Response Yes, % (FAS, Non-Responders (N=28)): (28.6) %
With Overall Response No, % (FAS, Non-Responders (N=28)): (35.7) %
With Overall Response Yes, % (FAS, Non-Responders (N=28)): (64.3) %
Transient Platelet Response No, % (FAS, Non-Responders (N=28)): (71.4) %
Durable Platelet Response No, % (FAS, Responders (N=25)): (28.0) %
Durable Platelet Response Yes, % (FAS, Responders (N=25)): (72.0) %
Transient Platelet Response Yes, % (FAS, Responders (N=25)): (16.0) %
With Overall Response No, % (FAS, Responders (N=25)): (12.0) %
With Overall Response Yes, % (FAS, Responders (N=25)): (88.0) %
Transient Platelet Response No, % (FAS, Responders (N=25)): (84.0) %
Upward titration required and implemented, % of subjects (FAS, Total): (50.0) %
Upward titration required and implemented, n of subjects (FAS, Total): 13/26
Upward titration required and implemented; subject achieved overall response, % of subjects (FAS, Total): (76.9) %
Upward titration required and implemented; subject achieved overall response, n of subjects (FAS, Total): 10/13
Upward titration required, % of subjects (FAS, Total (N = 53)): (49.0) %
Upward titration required, n of subjects (FAS, Total (N = 53)): 26
Durable Platelet Response, n (%) with response [3]: 12 (66.7) n (%)
Overall Platelet Response, n (%) with response [3]: 15 (83.3) n (%)
Durable Platelet Response, n (%) with response [4]: 3 (50.0) n (%)
Overall Platelet Response, n (%) with response [4]: 4 (66.7) n (%)
Durable Platelet Response, n (%) with response [5]: 9 (75.0) n (%)
Overall Platelet Response, n (%) with response [5]: 11 (91.7) n (%)
Durable Platelet Response, n (%) with response [6]: 24 (63.2) n (%)
Overall Platelet Response, n (%) with response [6]: 33 (86.8) n (%)
Durable Platelet Response, n (%) with response [7]: 9 (47.4) n (%)
Overall Platelet Response, n (%) with response [7]: 15 (78.9) n (%)
